ChEMBL document CHEMBL1201862, “PubChem BioAssay data set” (2004)
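These data come from cells grown in 96-well plates and exposed to compound for 48 hours at five concentrations. GI50 is the concentration that inhibits growth by half.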 Activity calls are given as the source filed them. Rule as the data show it: active = GI50 up to about 1.1 µM and inactive = higher.

What was measured:
Test in all cases: NCI-60 cell line screen, 48 h
[1] = tested on: A498
[2] = tested on: COLO 205
[3] = tested on: HL-60
[4] = tested on: Hs-578T
[5] = tested on: IGROV-1
[6] = tested on: KM12
[7] = tested on: M14
[8] = tested on: MDA-N
[9] = tested on: NCI/ADR-RES
[10] = tested on: OVCAR-5
[11] = tested on: RPMI-8226
[12] = tested on: SF-268
[13] = tested on: SF-295
[14] = tested on: SK-MEL-28
[15] = tested on: SK-OV-3
[16] = tested on: SNB-19
[17] = tested on: SW-620
[18] = tested on: U-251
[19] = tested on: UACC-257
[20] = tested on: SR

Row | Structure (SMILES) | GI50 [1] | GI50 [2] | GI50 [3] | GI50 [4] | GI50 [5] | GI50 [6] | GI50 [7] | GI50 [8] | GI50 [9] | GI50 [10] | GI50 [11] | GI50 [12] | GI50 [13] | GI50 [14] | GI50 [15] | GI50 [16] | GI50 [17] | GI50 [18] | GI50 [19] | GI50 [20]
1 | CCCCCc1cc2c(cc1O)CC[C@@H]1[C@@H]2CC[C@]2(C)[C@@H](O)CC[C@@H]12 | 21.4 µM (inactive) | 16.1 µM (inactive) | 21.3 µM (inactive) | 19.8 µM (inactive) | 18.5 µM (inactive) | 10.9 µM (inactive) | 14.9 µM (inactive) | 17.9 µM (inactive) | 18.9 µM (inactive) | 18.8 µM (inactive) | 19.1 µM (inactive) | 17.7 µM (inactive) | 13.4 µM (inactive) | 16.2 µM (inactive) | 21.8 µM (inactive) | 18.8 µM (inactive) | 26.4 µM (inactive) | 17.6 µM (inactive) | 21 µM (inactive) | 
2 | CC(=O)Nc1ccc(C(=O)NN2C(=O)CSC2c2ccc(O)cc2)cc1 (centres undefined) | > 100 µM (inactive) | > 100 µM (inactive) | > 100 µM (inactive) | > 100 µM (inactive) | > 100 µM (inactive) | > 100 µM (inactive) | > 100 µM (inactive) | > 100 µM (inactive) | > 100 µM (inactive) | > 100 µM (inactive) | > 100 µM (inactive) | > 100 µM (inactive) | > 100 µM (inactive) | > 100 µM (inactive) | > 100 µM (inactive) | > 100 µM (inactive) | > 100 µM (inactive) | > 100 µM (inactive) | > 100 µM (inactive) | 
3 | O=C1NCCCNCCCNCCCNC(=O)c2cccc1n2 |  | > 100 µM (inactive) |  | > 100 µM (inactive) | > 100 µM (inactive) | > 100 µM (inactive) | > 100 µM (inactive) | > 100 µM (inactive) | > 100 µM (inactive) | > 100 µM (inactive) | > 100 µM (inactive) | > 100 µM (inactive) | > 100 µM (inactive) | > 100 µM (inactive) | > 100 µM (inactive) | > 100 µM (inactive) | > 100 µM (inactive) | > 100 µM (inactive) | > 100 µM (inactive) | > 100 µM (inactive)
4 | COC(=O)C(Cc1c(C2Nc3ccccc3C2CC(NC(C)=O)C(=O)OC)[nH]c2ccccc12)NC(C)=O (centres undefined) | > 100 µM (inactive) | > 100 µM (inactive) | > 100 µM (inactive) | > 100 µM (inactive) | > 100 µM (inactive) | > 100 µM (inactive) | > 100 µM (inactive) | > 100 µM (inactive) | > 100 µM (inactive) | > 100 µM (inactive) | > 100 µM (inactive) | > 100 µM (inactive) | > 100 µM (inactive) | > 100 µM (inactive) | > 100 µM (inactive) | > 100 µM (inactive) | > 100 µM (inactive) | > 100 µM (inactive) | > 100 µM (inactive) | 
5 | COc1ccc(C2SCC(=O)N2NC2=NC(=O)CC(=O)N2)cc1 (centres undefined) | > 100 µM (inactive) | > 100 µM (inactive) |  | > 100 µM (inactive) | > 100 µM (inactive) | > 100 µM (inactive) | > 100 µM (inactive) | > 100 µM (inactive) | > 100 µM (inactive) | > 100 µM (inactive) | > 100 µM (inactive) | > 100 µM (inactive) | > 100 µM (inactive) | > 100 µM (inactive) | > 100 µM (inactive) |  | > 100 µM (inactive) | > 100 µM (inactive) | > 100 µM (inactive) | > 100 µM (inactive)
6 | COc1cc2nc(-c3cccs3)nc(N3CCN(c4ccccc4)CC3)c2cc1OC | > 100 µM (inactive) | > 100 µM (inactive) | > 100 µM (inactive) | > 100 µM (inactive) | > 100 µM (inactive) | > 100 µM (inactive) | > 100 µM (inactive) |  | > 100 µM (inactive) | > 100 µM (inactive) | > 100 µM (inactive) | > 100 µM (inactive) | > 100 µM (inactive) | > 100 µM (inactive) | > 100 µM (inactive) | 68.1 µM (inactive) | > 100 µM (inactive) | > 100 µM (inactive) | > 100 µM (inactive) | > 100 µM (inactive)
7 | CCc1ccccc1/N=N/C(=O)NNc1ccccc1CC | 18.7 µM (inactive) |  | 23.2 µM (inactive) |  | 11 µM (inactive) |  | 16.9 µM (inactive) | 18.3 µM (inactive) |  | 14.9 µM (inactive) | 22.2 µM (inactive) | 17.3 µM (inactive) |  | 17.7 µM (inactive) |  | 25.8 µM (inactive) | 17.1 µM (inactive) | 16.1 µM (inactive) | 18.9 µM (inactive) | 23.2 µM (inactive)
8 | C=CCNC(=S)N/N=C1\C(=O)N(CN2CCOCC2)c2ccc([N+](=O)[O-])cc21 | 7.52 µM (inactive) | 34.4 µM (inactive) | 24.6 µM (inactive) | > 100 µM (inactive) | 6.21 µM (inactive) | 28.3 µM (inactive) | 17.2 µM (inactive) | 30.8 µM (inactive) | 3.74 µM (inactive) | 56.2 µM (inactive) | 33 µM (inactive) | 58.6 µM (inactive) | 7.98 µM (inactive) | > 100 µM (inactive) | 36.5 µM (inactive) | 21.6 µM (inactive) | 61.5 µM (inactive) | 18.1 µM (inactive) | 16.6 µM (inactive) | 
9 | COc1cc(/C=C2\C[C@H]3[C@@H]4CC=C5C[C@@H](O)CC[C@]5(C)[C@H]4CC[C@]3(C)C2=O)cc(OC)c1OC | 51.6 µM (inactive) | 20.7 µM (inactive) | 0.366 µM (active) | 40.6 µM (inactive) | 64.1 µM (inactive) | 27.2 µM (inactive) | 24.4 µM (inactive) | 29.1 µM (inactive) | 27.5 µM (inactive) | 39.6 µM (inactive) | 6.98 µM (inactive) | 51.5 µM (inactive) | 19 µM (inactive) | 45.7 µM (inactive) | 53.1 µM (inactive) | 27.7 µM (inactive) | 39.6 µM (inactive) | 32.1 µM (inactive) | 29.2 µM (inactive) | 
10 | C\C(=N/N=C1/C(=C\N(C)C)C(=O)NC(=O)N1C)c1ccc(Cl)cc1 | > 100 µM (inactive) | > 100 µM (inactive) |  | > 100 µM (inactive) | 53 µM (inactive) | 44.6 µM (inactive) | 43.2 µM (inactive) | > 100 µM (inactive) | > 100 µM (inactive) | 69.2 µM (inactive) | 26.9 µM (inactive) | > 100 µM (inactive) | 54.6 µM (inactive) | > 100 µM (inactive) | > 100 µM (inactive) | > 100 µM (inactive) | 89.7 µM (inactive) | > 100 µM (inactive) | > 100 µM (inactive) | 
11 | O=C1C(Cl)=C(NCCc2ccc(O)cc2)C(=O)c2c(O)ccc(O)c21 |  | > 10 µM (inactive) | 5.42 µM (inactive) |  | > 10 µM (inactive) | 7.28 µM (inactive) | > 10 µM (inactive) | > 10 µM (inactive) | 3.76 µM (inactive) | > 10 µM (inactive) | > 10 µM (inactive) | 9.12 µM (inactive) | 9.82 µM (inactive) |  | > 10 µM (inactive) | > 10 µM (inactive) | > 10 µM (inactive) | > 10 µM (inactive) | 4.74 µM (inactive) | 
12 | COc1cc(C(=O)Nc2c3ccccc3nc3ccccc23)cc(OC)c1OC |  | > 100 µM (inactive) | 3.64 µM (inactive) | > 100 µM (inactive) | > 100 µM (inactive) | > 100 µM (inactive) | > 53.6 µM (inactive) | 30 µM (inactive) | > 93.5 µM (inactive) | > 100 µM (inactive) | > 100 µM (inactive) | 28.9 µM (inactive) | 35.6 µM (inactive) | > 100 µM (inactive) | > 100 µM (inactive) | > 95.1 µM (inactive) | > 100 µM (inactive) | > 100 µM (inactive) | > 100 µM (inactive) | 
13 | CC1=NN(c2nc(N)nc(CC#N)n2)C(C)(C)C1 | > 100 µM (inactive) | > 100 µM (inactive) | > 100 µM (inactive) | > 100 µM (inactive) | > 100 µM (inactive) | > 100 µM (inactive) | > 100 µM (inactive) |  | > 100 µM (inactive) |  | > 100 µM (inactive) | > 100 µM (inactive) | > 100 µM (inactive) | > 100 µM (inactive) | > 100 µM (inactive) | > 100 µM (inactive) | > 100 µM (inactive) | > 100 µM (inactive) | > 100 µM (inactive) | > 100 µM (inactive)
14 | CSc1cc(Cl)c(C)cc1S(=O)(=O)NC(=O)NNc1ccc(F)cc1 | > 100 µM (inactive) | > 100 µM (inactive) |  | > 100 µM (inactive) | > 100 µM (inactive) | > 100 µM (inactive) | > 100 µM (inactive) | > 100 µM (inactive) | > 100 µM (inactive) | > 100 µM (inactive) |  | > 100 µM (inactive) | > 100 µM (inactive) | > 100 µM (inactive) | > 100 µM (inactive) | > 100 µM (inactive) | > 100 µM (inactive) | > 100 µM (inactive) |  | > 100 µM (inactive)
15 | C/C(=N\Nc1nc2ccccc2s1)c1cccnn1 |  | 2.48 µM (inactive) |  | 12.1 µM (inactive) | 0.581 µM (active) | 2.77 µM (inactive) | 3.05 µM (inactive) | 8.63 µM (inactive) | 2.31 µM (inactive) | 4.02 µM (inactive) | 1.4 µM (inactive) | 1.56 µM (inactive) | 2.31 µM (inactive) | 4.56 µM (inactive) | 4.29 µM (inactive) | 8.2 µM (inactive) | 3.69 µM (inactive) | 3.68 µM (inactive) | 2.48 µM (inactive) | 0.476 µM (active)
